Test results taken from patent publication US11649241B2, “Pyrazolochlorophenyl compounds, compositions and methods of use thereof” (Genentech, Inc., priority 2017, dated 2023).
pIC50, pKi: −log10 of the molar value.

How the values were obtained:
[1] = target: isolated recombinant JAK2 kinase domain (Homo sapiens (Human), UniProt O60674); test: JAK enzyme assay (Caliper LabChip peptide phosphorylation), JAK2; type: biochemical; settings: 0.2 nM JAK2, ATP 25 μM, Morrison tight binding model
[2] = target: isolated recombinant JAK1 kinase domain (Homo sapiens (Human), UniProt P23458); test: JAK enzyme assay (Caliper LabChip peptide phosphorylation), JAK1; type: biochemical; settings: 1.5 nM JAK1, ATP 25 μM, Morrison tight binding model
Chain of isolated recombinant JAK1 kinase domain (P23458 875-1153): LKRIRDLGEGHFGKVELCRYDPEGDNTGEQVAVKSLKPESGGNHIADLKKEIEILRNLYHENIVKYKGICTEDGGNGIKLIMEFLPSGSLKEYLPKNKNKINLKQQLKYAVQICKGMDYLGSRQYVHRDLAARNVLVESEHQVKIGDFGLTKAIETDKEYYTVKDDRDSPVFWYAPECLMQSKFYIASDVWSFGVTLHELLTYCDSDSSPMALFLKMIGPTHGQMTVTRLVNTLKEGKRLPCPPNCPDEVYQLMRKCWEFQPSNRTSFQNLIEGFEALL

[3] = system: JAK1-dependent STAT6 phosphorylation downstream of IL-13 stimulation (TF-1 / BEAS-2B cells); test: JAK1 pathway assay in cell lines (IL-13-stimulated pSTAT6, MSD); type: cell-based; settings: Homo sapiens, inhibition of STAT6 phosphorylation, cell line (TF-1 or BEAS-2B) not specified
Procedure: JAK1 Pathway Assay in Cell Lines was Carried Out as Follows:
Inhibitor potency (EC50) was determined in cell-based assays designed to measure JAK1 dependent STAT phosphorylation. As noted above, inhibition of IL-4, IL-13, and IL-9 signalling by blocking the Jak/Stat signaling pathway can alleviate asthmatic symptoms in pre-clinical lung inflammation models (Mathew et al., 2001, J Exp Med 193(9): 1087-1096; Kudlacz et. al., 2008, Eur J. Pharmacol 582(1-3): 154-161).
In one assay approach, TF-1 human erythroleukemia cells obtained from the American Type Culture Collection (ATCC; Manassas, Va.) were used to measure JAK1-dependent STAT6 phosphorylation downstream of IL-13 stimulation. Prior to use in the assays, TF-1 cells were starved of GM-CSF overnight in OptiMEM medium (Life Technologies, Grand Island, N.Y.) supplemented with 0.5% charcoal/dextran stripped fetal bovine serum (FBS), 0.1 mM non-essential amino acids (NEAA), and 1 mM sodium pyruvate. The assays were run in 384-well plates in serum-free OptiMEM medium using 300,000 cells per well. In a second assay approach, BEAS-2B human bronchial epithelial cells obtained from ATCC were plated at 100,000 cells per well of a 96-well plate one day prior to the experiment. The BEAS-2B assay was run in complete growth medium (bronchial epithelial basal medium plus bulletkit; Lonza; Basel, Switzerland).
Test compounds were serially diluted 1:2 in DMSO and then diluted 1:50 in medium just before use. Diluted compounds were added to the cells, for a final DMSO concentration of 0.2%, and incubated for 30 min (for the TF-1 assay) or 1 hr (for the BEAS-2B assay) at 37° C. Then, cells were stimulated with human recombinant cytokine at their respective EC90 concentrations, as previously determined for each individual lot. Cells were stimulated with IL-13 (R&D Systems, Minneapolis, Minn.) for 15 min at 37° C. The TF-1 cell reactions were stopped by the direct addition of 10× lysis buffer (Cell Signaling Technologies, Danvers, Mass.), whereas the BEAS-2B cell incubations were halted by the removal of medium and addition of 1× lysis buffer. The resultant samples were frozen in the plates at −80° C. Compound mediated inhibition of STAT6 phosphorylation was measured in the cell lysates using MesoScale Discovery (MSD) technology (Gaithersburg, Md.). EC50 values were determined as the concentration of compound required for 50% inhibition of STAT phosphorylation relative to that measured for the DMSO control.

Chain of isolated recombinant JAK2 kinase domain (O60674 849-1124): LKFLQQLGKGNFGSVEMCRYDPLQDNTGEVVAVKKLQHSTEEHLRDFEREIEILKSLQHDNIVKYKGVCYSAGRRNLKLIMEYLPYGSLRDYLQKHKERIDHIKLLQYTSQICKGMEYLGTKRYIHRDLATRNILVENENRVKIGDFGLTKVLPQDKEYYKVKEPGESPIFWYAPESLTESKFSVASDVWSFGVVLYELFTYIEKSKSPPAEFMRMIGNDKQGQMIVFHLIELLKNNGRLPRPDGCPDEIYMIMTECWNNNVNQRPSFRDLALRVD

| Structure (SMILES) | pKi [1] | pKi [2] | pIC50 [3] |
| --- | --- | --- | --- |
| O=C(Nc1c[nH]nc1-c1cc(Cl)ccc1OC(F)F)c1cnn2cc(F)cnc12 [Example 12, N-(3-(5-chloro-2-(difluoromethoxy)phenyl)-1H-pyrazol-4-yl)-6-fluoropyrazolo[1,5-a]pyrimidine-3-carboxamide] | 10.05 | 9.39 | 7.77 |
| O=C(Nc1c[nH]nc1-c1cc(Cl)ccc1OC(F)F)c1cncc2scnc12 [Example 4, N-(3-(5-chloro-2-(difluoromethoxy)phenyl)-1H-pyrazol-4-yl)thiazolo[5,4-c]pyridine-7-carboxamide] | 8.69 | 8.02 |  |
| O=C(Nc1c[nH]nc1-c1cc(Cl)ccc1OC(F)F)c1cnc2[nH]ccc2n1 [Example 8, N-(3-(5-chloro-2-(difluoromethoxy)phenyl)-1H-pyrazol-4-yl)-5H-pyrrolo[3,2-b]pyrazine-2-carboxamide] | 9.47 | 9.24 |  |
| O=C(Nc1c[nH]nc1-c1cc(Cl)ccc1OC(F)F)c1coc2cccnc12 [Example 11, N-(3-(5-chloro-2-(difluoromethoxy)phenyl)-1H-pyrazol-4-yl)furo[3,2-b]pyridine-3-carboxamide] | 9.31 | 9.25 | 7.76 |
| O=C(Nc1c[nH]nc1-c1cc(Cl)ccc1OC(F)F)c1cncc2[nH]cnc12 [Example 15, N-(3-(5-chloro-2-(difluoromethoxy)phenyl)-1H-pyrazol-4-yl)-3H-imidazo[4,5-c]pyridine-7-carboxamide] | 8.59 | 8.25 |  |
| COc1ccn2ncc(C(=O)Nc3c[nH]nc3-c3cc(Cl)ccc3OC(F)F)c2n1 [Example 14, N-(3-(5-chloro-2-(difluoromethoxy)phenyl)-1H-pyrazol-4-yl)-5-methoxypyrazolo[1,5-a]pyrimidine-3-carboxamide] | 10.40 | 9.74 | 8.42 |
| O=C(Nc1c[nH]nc1-c1cc(Cl)ccc1OC(F)F)c1cncc2cn[nH]c12 [Example 6, N-(3-(5-chloro-2-(difluoromethoxy)phenyl)-1H-pyrazol-4-yl)-1H-pyrazolo[4,3-c]pyridine-7-carboxamide] | 9.32 | 8.13 |  |
| COc1ccc(Cl)cc1-c1nn(C)cc1NC(=O)c1cncc2cn[nH]c12 [Example 2, N-(3-(5-Chloro-2-methoxyphenyl)-1-methyl-1H-pyrazol-4-yl)-1H-pyrazolo[4,3-c]pyridine-7-carboxamide] | 9.46 | 8.87 | 7.44 |
| COc1ccc(Cl)cc1-c1n[nH]cc1NC(=O)c1cncc2scnc12 [Example 3, N-(3-(5-Chloro-2-methoxyphenyl)-1H-pyrazol-4-yl)thiazolo[5,4-c]pyridine-7-carboxamide] | 9.02 | 8.18 |  |
| Nc1nn2cccnc2c1C(=O)Nc1c[nH]nc1-c1cc(Cl)ccc1OC(F)F [Example 9, 2-amino-N-(3-(5-chloro-2-(difluoromethoxy)phenyl)-1H-pyrazol-4-yl)pyrazolo[1,5-a]pyrimidine-3-carboxamide] | 9.77 | 9.31 | 8.10 |
| Nc1nc2c(C(=O)Nc3c[nH]nc3-c3cc(Cl)ccc3OC(F)F)cncc2s1 [Example 5, 2-amino-N-(3-(5-chloro-2-(difluoromethoxy)phenyl)-1H-pyrazol-4-yl)thiazolo[5,4-c]pyridine-7-carboxamide] | 10.22 | 9.01 |  |
| COc1ccc(Cl)cc1-c1nn(C)cc1NC(=O)c1cncc2cn(C)nc12 [Example 1, N-(3-(5-Chloro-2-methoxyphenyl)-1-methyl-1H-pyrazol-4-yl)-2-methyl-2H-pyrazolo[4,3-c]pyridine-7-carboxamide] | 8.44 | 8.44 | 7.03 |
| O=C(Nc1c[nH]nc1-c1cc(Cl)ccc1OC(F)F)c1cncc2ccoc12 [Example 10, N-(3-(5-chloro-2-(difluoromethoxy)phenyl)-1H-pyrazol-4-yl)furo[3,2-c]pyridine-7-carboxamide] | 9.48 | 9.07 | 7.30 |
| O=C(Nc1c[nH]nc1-c1cc(Cl)ccc1OC(F)F)c1snc2cccnc12 [Example 7, N-(3-(5-chloro-2-(difluoromethoxy)phenyl)-1H-pyrazol-4-yl)isothiazolo[4,3-b]pyridine-3-carboxamide] | 9.22 | 9.27 | 7.69 |
| Cc1ccn2ncc(C(=O)Nc3c[nH]nc3-c3cc(Cl)ccc3OC(F)F)c2n1 [Example 13, N-(3-(5-chloro-2-(difluoromethoxy)phenyl)-1H-pyrazol-4-yl)-5-methylpyrazolo[1,5-a]pyrimidine-3-carboxamide] | 9.39 | 8.64 | 7.38 |
